Laboratory results published in ChEMBL document CHEMBL4813990, “One-step modification to identify dual-inhibitors targeting both pancreatic triglyceride lipase and Niemann-Pick C1-like 1” (Eur J Med Chem, 2021).
The source made the active and inactive calls. No cut-off for these calls is given here.

Tests used:
[1] = test system: Caco-2; test: Inhibition of PTL expression in human Caco-2 cells at 0.1 to 100 uM incubated for 24 hrs by Western blot analysis; format: functional, cell-based; settings: dose 0.1-100 µM
[2] = test system: Caco-2; test: Inhibition of PTL mRNA expression in human Caco-2 cells at 100 uM incubated for 24 hrs by qRT-PCR analysis; format: functional, cell-based
[3] = test system: Caco-2; test: Inhibition of NPC1L1 mRNA expression in human Caco-2 cells at 100 uM incubated for 24 hrs by qRT-PCR analysis; format: functional, cell-based
[4] = molecular target: T1, NPC1-like intracellular cholesterol transporter 1 (Homo sapiens) (UniProt Q9UHC9); test: Inhibition of NPC1L1 in human Caco-2 cells assessed as decrease in uptake of cholesterol-d6 at 50 uM by HPLC-MS analysis; format: cell-based
T1 sequence (whole entry): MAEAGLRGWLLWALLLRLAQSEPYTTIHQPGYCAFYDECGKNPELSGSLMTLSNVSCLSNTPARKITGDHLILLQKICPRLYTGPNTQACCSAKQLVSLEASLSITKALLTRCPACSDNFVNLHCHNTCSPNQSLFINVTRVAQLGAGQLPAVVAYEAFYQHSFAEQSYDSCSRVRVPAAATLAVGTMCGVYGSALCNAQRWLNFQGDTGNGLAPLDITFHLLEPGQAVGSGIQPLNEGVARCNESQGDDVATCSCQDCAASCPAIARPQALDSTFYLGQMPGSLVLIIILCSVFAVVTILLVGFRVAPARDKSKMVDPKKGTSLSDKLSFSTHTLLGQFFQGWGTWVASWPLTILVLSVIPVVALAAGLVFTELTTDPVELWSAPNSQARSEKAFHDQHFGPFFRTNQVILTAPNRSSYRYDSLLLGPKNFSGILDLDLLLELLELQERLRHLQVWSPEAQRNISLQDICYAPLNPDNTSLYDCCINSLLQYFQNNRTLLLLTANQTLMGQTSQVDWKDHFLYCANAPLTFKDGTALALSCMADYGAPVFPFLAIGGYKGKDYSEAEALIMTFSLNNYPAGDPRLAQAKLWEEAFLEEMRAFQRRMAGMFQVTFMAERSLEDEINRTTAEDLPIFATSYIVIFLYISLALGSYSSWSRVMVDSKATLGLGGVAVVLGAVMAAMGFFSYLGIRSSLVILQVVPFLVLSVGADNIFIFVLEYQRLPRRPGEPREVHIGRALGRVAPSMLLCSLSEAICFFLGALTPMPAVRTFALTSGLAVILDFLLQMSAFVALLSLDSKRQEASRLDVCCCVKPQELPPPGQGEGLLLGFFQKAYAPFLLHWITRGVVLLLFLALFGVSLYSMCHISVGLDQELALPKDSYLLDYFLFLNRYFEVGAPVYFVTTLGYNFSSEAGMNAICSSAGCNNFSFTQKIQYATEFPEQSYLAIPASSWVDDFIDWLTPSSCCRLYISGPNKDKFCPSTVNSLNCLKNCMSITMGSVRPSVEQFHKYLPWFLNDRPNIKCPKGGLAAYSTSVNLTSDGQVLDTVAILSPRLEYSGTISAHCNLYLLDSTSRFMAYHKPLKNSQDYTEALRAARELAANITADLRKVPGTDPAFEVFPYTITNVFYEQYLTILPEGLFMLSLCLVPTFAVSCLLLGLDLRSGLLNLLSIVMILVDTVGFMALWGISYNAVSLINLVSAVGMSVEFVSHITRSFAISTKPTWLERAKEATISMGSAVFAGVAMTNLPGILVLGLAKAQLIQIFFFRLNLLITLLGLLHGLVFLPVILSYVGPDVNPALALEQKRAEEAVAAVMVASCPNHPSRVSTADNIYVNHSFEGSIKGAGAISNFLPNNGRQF

[5] = test system: Caco-2; test: Inhibition of NPC1L1 expression in human Caco-2 cells at 0.1 to 100 uM incubated for 24 hrs by Western blot analysis; format: functional, cell-based; settings: dose 0.1-100 µM
[6] = molecular target: T1, NPC1-like intracellular cholesterol transporter 1 (Homo sapiens); test: Binding affinity to NPC1L1 (unknown origin) at 6.25 to 100 uM by SPR analysis; settings: dose 6.25-100 µM
[7] = molecular target: T1, NPC1-like intracellular cholesterol transporter 1 (Homo sapiens); test: Non-competitive inhibition of NPC1L1 in human Caco-2 cells assessed as decrease in uptake of cholesterol at 50 uM by HPLC-MS based Lineweaver-Burk double reciprocal plot analysis; format: cell-based

inhibition [4]	Activity [6]	inhibition [7]	Structure (SMILES)	inhibition [1]	inhibition [2]	inhibition [3]	inhibition [5]
Active			O=C1[C@H](CC[C@H](O)c2ccc(F)cc2)[C@@H](c2ccc(O)cc2)N1c1ccc(F)cc1	Active	Active	inactive	inactive
Active	Active		CCCCCCCCCCC[C@@H](C[C@@H]1OC(=O)[C@H]1CCCCCC)OC(=O)[C@H](CC(C)C)NC=O	Active			inactive
	Active		CCCCCCCCCCC[C@@H](C[C@@H]1OC(=O)[C@H]1CCCCCC)OC(=O)c1cccc(O)c1				
Active	Active	Active	CCCCCCCCCCC[C@@H](C[C@@H]1OC(=O)[C@H]1CCCCCC)OC(=O)c1ccc(O)cc1	Active	Active	inactive	inactive
